Measurements published in US8962671B2, “Amino-substituted 3-heteroaroylamino-propionic acid derivatives and their use as pharmaceuticals” (Sanofi, priority 2011, dated 2015).

Target: T1, Recombinant human cathepsin A (Homo sapiens, UniProt P10619)
T1 construct: Recombinant human cathepsin A (residues 29-480, with a C-terminal 10-His tag); 10-His (C); purchased R&D Systems 1049-SE
T1 sequence (P10619 29-326 limits assumed): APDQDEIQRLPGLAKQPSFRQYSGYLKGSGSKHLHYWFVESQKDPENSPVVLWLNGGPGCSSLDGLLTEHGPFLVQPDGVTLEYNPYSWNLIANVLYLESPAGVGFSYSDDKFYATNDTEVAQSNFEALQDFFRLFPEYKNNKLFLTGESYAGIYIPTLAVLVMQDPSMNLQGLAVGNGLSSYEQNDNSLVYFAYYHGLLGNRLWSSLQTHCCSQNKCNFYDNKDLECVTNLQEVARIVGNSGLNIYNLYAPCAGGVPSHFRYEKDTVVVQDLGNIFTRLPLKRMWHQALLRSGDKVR
T1 sequence (P10619 327-480 limits assumed): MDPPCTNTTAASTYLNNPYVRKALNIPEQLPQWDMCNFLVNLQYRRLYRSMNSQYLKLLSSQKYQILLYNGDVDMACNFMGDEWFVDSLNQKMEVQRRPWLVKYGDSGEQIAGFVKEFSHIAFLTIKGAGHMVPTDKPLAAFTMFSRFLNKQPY
Assay: Cathepsin A inhibitory activity
Type: biochemical
Settings: activated recombinant human cathepsin A 833 ng/ml, Bodipy FL-labeled bradykinin 2 μM, pH 5.5, 15 min room temperature
Procedure: a) Cathepsin a Inhibitory Activity
Recombinant human cathepsin A (residues 29-480, with a C-terminal 10-His tag; R&D Systems, #1049-SE) was proteolytically activated with recombinant human cathepsin L (R&D Systems, #952-CY). Briefly, cathepsin A was incubated at 10 μg/ml with cathepsin L at 1 μg/ml in activation buffer (25 mM 2-(morpholin-4-yl)-ethanesulfonic acid (MES), pH 6.0, containing 5 mM dithiothreitol (DTT)) for 15 min at 37° C. Cathepsin L activity was then stopped by the addition of the cysteine protease inhibitor E-64 (N-(trans-epoxysuccinyl)-L-leucine-4-guanidinobutylamide; Sigma-Aldrich, #E3132; dissolved in activation buffer/DMSO) to a final concentration of 10 μM.
The activated cathepsin A was diluted in assay buffer (25 mM MES, pH 5.5, containing 5 mM DTT) and mixed with the test compound (dissolved in assay buffer containing (v/v) 3% DMSO) or, in the control experiments, with the vehicle in a multiple assay plate. After incubation for 15 min at room temperature, as substrate then bradykinin carrying an N-Terminal®Bodipy FL (4,4-difluoro-5,7-dimethyl-4-bora-3a,4a-diaza-s-indacene-3-propionyl) label (JPT Peptide Technologies GmbH; dissolved in assay buffer) was added to the mixture. The final concentration of cathepsin A was 833 ng/ml and the final concentration of labeled bradykinin 2 μM. After incubation for 15 min at room temperature the reaction was stopped by the addition of stop buffer (130 mM 2-(4-(2-hydroxy-ethyl)-piperazin-1-yl)-ethanesulfonic acid, pH 7.4, containing (v/v) 0.013%®Triton X-100, 0.13% Coating Reagent 3 (Caliper Life Sciences), 6.5% DMSO and 20 μM ebelactone B (Sigma, #E0886)).
Uncleaved substrate and product were then separated by a microfluidic capillary electrophoresis on a LabChip® 3000 Drug Discovery System (12-Sipper-Chip; Caliper Life Sciences) and quantified by determination of the respective peak areas. Substrate turnover was calculated by dividing product peak area by the sum of substrate and product peak areas, and the enzyme activity and the inhibitory effect of the test compound thus quantified. From the percentage of inhibition of cathepsin A activity observed with the test compound at several concentrations, the inhibitory concentration IC50, i.e. the concentration which effects 50% inhibition of enzyme activity was, calculated.

IC50 [nM] | SMILES
24.9 | Cc1ccccc1[C@H](CC(=O)O)NC(=O)c1cc(NC[C@H](O)C(C)(C)C)n(-c2ccccc2)n1 (single isomer, unassigned) [Example 59]
11.3 | Cc1ccccc1[C@H](CC(=O)O)NC(=O)c1cc(NC[C@@H](O)C(C)(C)C)n(-c2ccccc2)n1 (single isomer, unassigned) [Example 60]
25.1 | Cc1ccccc1[C@H](CC(=O)O)NC(=O)c1cc(N)n(-c2ccccc2)n1 [Example 1, (S)-3-[(5-Amino-1-phenyl-1H-pyrazole-3-carbonyl)-amino]-3-o-tolyl-propionic acid]
13.8 | Cc1ccccc1[C@H](CC(=O)O)NC(=O)c1cc(N)n(-c2ccccc2F)n1 [Example 3, (S)-3-{[5-Amino-1-(2-fluoro-phenyl)-1H-pyrazole-3-carbonyl]-amino}-3-o-tolyl-propionic acid]
15.6 | Cc1ccccc1[C@H](CC(=O)O)NC(=O)c1cc(N2CCCC2)n(-c2ccccc2)n1 [Example 6, (S)-3-[(1-Phenyl-5-pyrrolidin-1-yl-1H-pyrazole-3-carbonyl)-amino]-3-o-tolyl-propionic acid]
14 | Cc1ccccc1[C@H](CC(=O)O)NC(=O)c1cc(NC(=O)Nc2ccccc2)n(-c2ccccc2)n1 [Example 10, (S)-3-{[1-Phenyl-5-(3-phenyl-ureido)-1H-pyrazole-3-carbonyl]-amino}-3-o-tolyl-propionic acid]
25.2 | Cc1ccccc1[C@H](CC(=O)O)NC(=O)c1cc(NS(C)(=O)=O)n(-c2ccccc2)n1 [Example 11, (S)-3-[(5-Methanesulfonylamino-1-phenyl-1H-pyrazole-3-carbonyl)-amino]-3-o-tolyl-propionic acid]
13.6 | Cc1ccccc1[C@H](CC(=O)O)NC(=O)c1cc(N2CCCS2(=O)=O)n(-c2ccccc2F)n1 [Example 12, (S)-3-{[5-(1,1-Dioxo-1lambda6-isothiazolidin-2-yl)-1-(2-fluoro-phenyl)-1H-pyrazole-3-carbonyl]-amino}-3-o-tolyl-propionic acid]
8.4 | Cc1ccccc1[C@H](CC(=O)O)NC(=O)c1cc(N2CCCC2)n(-c2ccccc2F)n1 [Example 13, (S)-3-{[1-(2-Fluoro-phenyl)-5-pyrrolidin-1-yl-1H-pyrazole-3-carbonyl]-amino}-3-o-tolyl-propionic acid]
25.8 | Cc1ccccc1[C@H](CC(=O)O)NC(=O)c1cc(N2CCCC2=O)n(-c2ccccc2F)n1 [Example 14, (S)-3-{[1-(2-Fluoro-phenyl)-5-(2-oxo-pyrrolidin-1-yl)-1H-pyrazole-3-carbonyl]-amino}-3-o-tolyl-propionic acid]
25.5 | Cc1ccccc1[C@H](CC(=O)O)NC(=O)c1cc(N2CCCC2=O)n(-c2ccccc2)n1 [Example 15, (S)-3-{[5-(2-Oxo-pyrrolidin-1-yl)-1-phenyl-1H-pyrazole-3-carbonyl]-amino}-3-o-tolyl-propionic acid]
17.9 | Cc1ccccc1[C@H](CC(=O)O)NC(=O)c1cc(N2CCCS2(=O)=O)n(-c2ccccc2)n1 [Example 16, (S)-3-{[5-(1,1-Dioxo-1lambda6-isothiazolidin-2-yl)-1-phenyl-1H-pyrazole-3-carbonyl]-amino}-3-o-tolyl-propionic acid]
64.5 | Cc1ccccc1[C@H](CC(=O)O)NC(=O)c1cc(N2CCCCC2=O)n(-c2ccccc2)n1 [Example 17, (S)-3-{[5-(2-Oxo-piperidin-1-yl)-1-phenyl-1H-pyrazole-3-carbonyl]-amino}-3-o-tolyl-propionic acid]
45.6 | Cc1ccccc1[C@H](CC(=O)O)NC(=O)c1cc(N2CCCCC2=O)n(-c2ccccc2F)n1 [Example 18, (S)-3-{[1-(2-Fluoro-phenyl)-5-(2-oxo-piperidin-1-yl)-1H-pyrazole-3-carbonyl]-amino}-3-o-tolyl-propionic acid]
49.7 | Cc1ccccc1[C@H](CC(=O)O)NC(=O)c1cc(Nc2ccccn2)n(-c2ccccc2)n1 [Example 19, (S)-3-{[1-Phenyl-5-(pyridin-2-ylamino)-1H-pyrazole-3-carbonyl]-amino}-3-o-tolyl-propionic acid]

Second part, the molecule before the results:

SMILES | IC50 [nM]
Nc1cc(C(=O)NC(CC(=O)O)c2ccc(-c3ccc(F)cc3)cc2)nn1-c1ccccc1 (centres unmarked) [Example 2, 3-[(5-Amino-1-phenyl-1H-pyrazole-3-carbonyl)-amino]-3-(4′-fluoro-biphenyl-4-yl)-propionic acid] | 53.2
Nc1cc(C(=O)NC(CC(=O)O)c2ccc(-c3ccc(F)cc3)cc2)nn1-c1ccccc1F (centres unmarked) [Example 4, 3-{[5-Amino-1-(2-fluoro-phenyl)-1H-pyrazole-3-carbonyl]-amino}-3-(4′-fluoro-biphenyl-4-yl)-propionic acid] | 18.5
Cc1ccccc1[C@H](CC(=O)O)NC(=O)c1nn(-c2ccccc2F)c(N)c1C#N [Example 5, (S)-3-{[5-Amino-4-cyano-1-(2-fluoro-phenyl)-1H-pyrazole-3-carbonyl]-amino}-3-o-tolyl-propionic acid] | 18.7
Nc1cc(C(=O)NC(CC(=O)O)c2ccc(-c3ccccn3)cc2)nn1-c1ccccc1F (centres unmarked) [Example 7, 3-{[5-Amino-1-(2-fluoro-phenyl)-1H-pyrazole-3-carbonyl]-amino}-3-(4-pyridin-2-yl-phenyl)-propionic acid] | 20.4
Nc1cc(C(=O)N[C@@H](CC(=O)O)c2cccc(Cl)c2Cl)nn1-c1ccccc1F [Example 8, (S)-3-{[5-Amino-1-(2-fluoro-phenyl)-1H-pyrazole-3-carbonyl]-amino}-3-(2,3-dichloro-phenyl)-propionic acid] | 23.2
Nc1cc(C(=O)NC(CC(=O)O)c2cc(Cl)ccc2Cl)nn1-c1ccccc1F (centres unmarked) [Example 9, 3-{[5-Amino-1-(2-fluoro-phenyl)-1H-pyrazole-3-carbonyl]-amino}-3-(2,5-dichloro-phenyl)-propionic acid] | 200
O=C(O)CC(NC(=O)c1cc2[nH]c3ccccc3n2n1)c1ccc(F)c(F)c1 (centres unmarked) [Example 20, 3-[(4H-Benzo[4,5]imidazo[1,2-b]pyrazole-2-carbonyl)-amino]-3-(3,4-difluoro-phenyl)-propionic acid] | 3280
N#Cc1ccc(C(CC(=O)O)NC(=O)c2cc3[nH]c4ccccc4n3n2)cc1 (centres unmarked) [Example 21, 3-[(4H-Benzo[4,5]imidazo[1,2-b]pyrazole-2-carbonyl)-amino]-3-(4-cyano-phenyl)-propionic acid] | 2390
O=C(O)CC(NC(=O)c1cc2[nH]c3ccccc3n2n1)c1cccc2c1OCO2 (centres unmarked) [Example 22, 3-Benzo[1,3]dioxol-4-yl-3-[(4H-benzo[4,5]imidazo[1,2-b]pyrazole-2-carbonyl)-amino]-propionic acid] | 1110
O=C(O)CC(NC(=O)c1cc2[nH]c3ccccc3n2n1)c1cccc(F)c1 (centres unmarked) [Example 23, 3-[(4H-Benzo[4,5]imidazo[1,2-b]pyrazole-2-carbonyl)-amino]-3-(3-fluoro-phenyl)-propionic acid] | 3120
O=C(O)CC(NC(=O)c1cc2[nH]c3ccccc3n2n1)c1ccccc1F (centres unmarked) [Example 24, 3-[(4H-Benzo[4,5]imidazo[1,2-b]pyrazole-2-carbonyl)-amino]-3-(2-fluoro-phenyl)-propionic acid] | 1750
O=C(O)CC(NC(=O)c1cc2[nH]c3ccccc3n2n1)c1cccc(Oc2ccccc2)c1 (centres unmarked) [Example 26, 3-[(4H-Benzo[4,5]imidazo[1,2-b]pyrazole-2-carbonyl)-amino]-3-(3-phenoxy-phenyl)-propionic acid] | 2610
O=C(O)CC(NC(=O)c1cc2[nH]c3ccccc3n2n1)c1cc(F)ccc1Cl (centres unmarked) [Example 32, 3-[(4H-Benzo[4,5]imidazo[1,2-b]pyrazole-2-carbonyl)-amino]-3-(2-chloro-5-fluoro-phenyl)-propionic acid] | 664
O=C(O)CC(NC(=O)c1cc2[nH]c3ccccc3n2n1)c1cc(F)ccc1F (centres unmarked) [Example 33, 3-[(4H-Benzo[4,5]imidazo[1,2-b]pyrazole-2-carbonyl)-amino]-3-(2,5-difluoro-phenyl)-propionic acid] | 2670
